≈ marks a conversion by molar mass, not a printed value. Where a name gives a salt, the structure may show the parent alone.
Experiments:
[1] = Intrinsic clearance in human liver microsomes; type: in vitro ADME; conditions: human, pooled human liver microsomes (50 donors), pH 7.4, human liver microsome assay; 1 μM test compound, 0.806 mg/mL protein, NADPH, pH 7.4, 37° C.; mean +/− STD Dev; read-out: CLint (μL/min/mg) (+/− STD Dev)
Description: The incubations were conducted at 37° C. […] (Sorvall RC 3C Plus, Thermo Scientific, Waltham, Mass.).

[2] = High throughput determination of intrinsic clearance in human hepatocytes; type: in vitro ADME; conditions: human, pooled cryopreserved human hepatocytes (10 donors), high throughput human hepatocyte assay; 0.5 million cells/mL, 1 μM test compound, 37° C.; mean +/− Std Dev; read-out: CLint (μL/min/10^6 cells) (+/− Std Dev)
Description: The incubation was carried out at 37° C. […] The samples were centrifuged (Eppendorf, Hauppauge, N.Y.) at 3000 rpm for 5 min at 4° C.

human DGAT2 (hDGAT2) = human DGAT2 (hDGAT2) (Homo sapiens (Human), UniProt Q96PD7); assay: In vitro DGAT2 assay, determination of IC50 values for DGAT2 inhibitors; type: biochemical; conditions: hDGAT2 membrane fraction; geometric mean
Sequence of human DGAT2 (hDGAT2) (Q96PD7 whole entry): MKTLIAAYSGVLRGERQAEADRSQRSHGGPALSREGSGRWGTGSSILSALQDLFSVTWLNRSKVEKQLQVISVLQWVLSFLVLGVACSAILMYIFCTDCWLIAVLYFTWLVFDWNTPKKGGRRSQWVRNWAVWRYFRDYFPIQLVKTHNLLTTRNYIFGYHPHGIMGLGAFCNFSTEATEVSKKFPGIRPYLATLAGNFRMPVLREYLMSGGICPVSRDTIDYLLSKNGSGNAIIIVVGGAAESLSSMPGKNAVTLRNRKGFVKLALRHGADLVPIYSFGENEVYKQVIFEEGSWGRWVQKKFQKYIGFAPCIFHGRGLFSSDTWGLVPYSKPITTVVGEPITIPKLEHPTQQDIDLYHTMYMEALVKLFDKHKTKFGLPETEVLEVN
Description: Recombinant baculovirus for the FLAG-tagged hDGAT2 was generated in SF9 insect cells using Bac-to-Bac baculovirus expression system (Invitrogen) according to the manufacturer's protocol. For the expression of hDGAT2, SF9 cells (20 L) grown in Sf900II media were infected with hDGAT2 baculovirus at a multiplicity of infection of 1 in a Wave Bioreactor System 20/50P wave bag (GE Healthcare). After 40 hours of infection, the cells were then harvested by centrifugation at 5,000×g. The cell pellets were washed by resuspending in phosphate buffered saline (PBS) and collected by centrifugation at 5,000×g. The cell paste was flash frozen in liquid N2 and stored at −80° C. until needed. All operations below were at 4° C. unless otherwise noted. The cells were resuspended in lysis buffer (50 mM Tris-HCl, pH 8.0, 250 mM sucrose) including 1 mM ethylenediaminetetraacetic acid (EDTA) and the complete protease inhibitor cocktail (Roche Diagnostics) at a ratio of 3 mL buffer per 1 g cell paste. The cells were lysed by dounce homogenizer. The cell debris was removed by centrifugation at 1,000×g for 20 min, and the supernatant was centrifuged at 100,000×g for 1 hour. The resulting pellet was rinsed three times by filling ultracentrifuge tubes to the top with ice cold PBS before decanting. The washed pellet was resuspended with gentle stirring for 1 hour in lysis buffer containing 8 mM 3-[(3-cholamidopropyl)dimethylammonio]-1-propanesulfonate (CHAPS) at a ratio of 1 mL buffer per 1 g of original cell paste and centrifuged again at 100,000×g for 1 hour. The resulting supernatant was aliquotted, flash frozen in liquid N2, and stored at −80° C. until use.
To 1 μL of compounds dissolved in 100% DMSO and spotted at the bottom of each well, 5 μL of 0.04% bovine serum albumin (BSA) (fatty acid free, Sigma Aldrich) was added and the mixture was incubated at room temperature for 15 minutes. hDGAT2 membrane fractions were diluted in 100 mM Hepes-NaOH, pH 7.4, 20 mM MgCl2 containing 200 nM methyl arachidonyl fluorophosphonate (Cayman Chemical; dried from ethyl acetate stock solution under argon gas and dissolved in DMSO as 5 mM stock). 10 μL of this enzyme working solution was added to the plates and incubation continued for 2 hours at room temperature. […] Plates were centrifuged at 2,000×g for 1 minute in an Allegra 6R Centrifuge (Beckman Coulter) and then were sealed again with fresh covers before reading in a 1450 Microbeta Wallac Trilux Scintillation Counter (Perkin Elmer). DGAT2 activity was measured by quantifying the generated product [^14C]tridecanoylglycerol in the upper organic phase. […]

[3] = Intrinsic clearance in human hepatocytes (relay method); type: in vitro ADME; conditions: human, cryopreserved human hepatocytes (suspension, relay method), 20 h total incubation, mean +/− standard deviation, read-out: CLint (+/− Std Dev), relay hepatocyte assay
Description: For intrinsic clearance (CLint) measurement, hepatocyte relay method was used (Di, L., et al. 2012, Drug Metab. Dispos., 40, 1860-1865 and Di, L., et al. 2013, Drug Metab. Dispos., 41, 2018-2023). Cryopreserved human hepatocytes (Lot DCM from BioreclamationlVT) were used. Upon thawing, the hepatocytes were resuspended in Williams' medium E (custom formula number 91-5233EA; Gibco, Grand Island, N.Y.) supplemented with Hepes and Na2CO3. […] The plates were incubated at 37° C. with 95% air/5% CO2, 75% relative humidity for 4 h at 150 rpm in a humidified incubator. At time 0 and 4 h, 25 μL of hepatocyte suspension was removed from the incubation and added to 50 μL of ice-cold acetonitrile (containing metoprolol, indomethacin, and terfenadine as internal standards) to quench the reaction. The samples were centrifuged (Eppendorf, Hauppauge, N.Y.) at 3000 rpm (1439×g) for 10 min at room temperature, and 50 μL of supernatant was transferred to a clean plate, dried completely, and reconstituted before liquid chromatography/tandem mass spectrometry (LC-MS/MS) analysis. The remaining hepatocyte suspensions in the incubation plate were centrifuged (3000 rpm, 1439×g, 10 min, room temperature). The supernatant of 300 μL was transferred to a clean 24-well plate and stored at −80° C. until the next relay experiment. For the second relay experiment, the supernatant plates were warmed first to room temperature for 30 minutes, then to 37° C. for 30 min, and hepatocytes were added to the samples to give a final cell density of 0.5 million cells/mL. The plates were incubated at 37° C. for 4 h, sampled, and processed as described above. Five relays were performed to give a total incubation time of 20 h, with sampling points at (0, 4, 8, 12, 16 and 20 h). The concentrations of test compound determined at each time point by the LC-MS/MS analysis were used to calculate the intrinsic clearance.

[4] = Determination of pKa (capillary electrophoresis, Analiza, Inc.); type: physicochemical; conditions: mean, read-out: Basic pKa (most basic pKa)
[5] = Thermodynamic solubility in various biorelevant media; type: physicochemical; conditions: crystalline solid; for solubility at 25 h: 25 °C, thermodynamic from solid
Description: The solubility of active pharmaceutical ingredients is an important characteristic in determining biological performance and ease of formulation during drug development, with high solubility being preferred (Klein, S. 2010, The AAPS Journal, 12, 397-406; Di, L., et al 2012, Drug Disc. Today, 17. 486-495). A test sample of crystalline solid (˜7 mg) was combined in a vial with 1 mL of the relevant buffer solution and the mixture vortexed to combine. If the solid dissolved completely, additional solid was added with vortexing until a saturated solution was obtained. The saturated solution/solid mixture was capped and subjected to temperature cycling as follows: 1 min at 25° C., 8 h at 40° C., 5 h at 15° C. and 12 h at 25° C. The mixture was filtered in a centrifugal filtration device (0.22 μm PVDF filter, MilliporeSigma, Milwaukee, Wis.) at 13,000 rpm and the concentration of the test compound in the filtrate was determined by HPLC/UPLC with reference to a three point standard curve. Phosphate buffered saline (PBS, pH 6.8, 50 mM phosphate buffer, 250 mM NaCl). Simulated gastric fluid (SGN pH 1.2, USP recipe). Fasted state simulated intestinal fluid (FaSSIF, 3 mM sodium taurocholate, 0.75 mM phospholipid from soybean lecithin, 50 mM phosphate buffer, ionic strength adjusted to 250 mM with NaCl, pH 6.8) and fed state simulated intestinal fluid (FeSSIF, 15 mM sodium taurocholate, 3.75 mM phospholipid from soybean lecithin, 144 mM acetic acid, 50 mM phosphate buffer, ionic strength adjusted to 250 mM with NaCl, pH 6.8).

| microsomal CLint at 1 μM [1] [µL/min/mg] | hepatocyte CLint at 1 μM [2] [µL/min/1e6 cells] | IC50 (human DGAT2 (hDGAT2)) [nM] | hepatocyte CLint at 1 μM [3] [µL/min/1e6 cells] | pKa [4] | SMILES | further results |
| --- | --- | --- | --- | --- | --- | --- |
| < 8 | 5.1 | 200 |  |  | CCOc1cccnc1Oc1cncc(-c2ncc(C(=O)NC3CCS(=O)(=O)C3)cn2)c1 (stereo not shown) [WO2018033832 Ex. 3.3] |  |
| < 9.6 | 9.3 | 3.3 |  |  | CCOc1cc(F)cnc1Oc1cncc(-c2ncc(C(=O)N[C@H]3CCOC3)cn2)c1 [WO2018033832 Ex. 8] |  |
| 17 | 4.7 |  | 4.9 | 2.5 | CCOc1cccnc1Oc1cncc(-c2ncc(C(=O)N[C@@H]3CCOC3)cn2)c1 [WO2018033832 Ex. 2] |  |
| < 14 | 12 |  |  |  | CCOc1cccnc1Oc1cncc(-c2ncc(C(=O)N[C@H]3CCC(C(F)(F)F)NC3)cn2)c1 (mixture of isomers) [Example 8, rac-2-{5-[(3-ethoxypyridin-2-yl)oxy]pyridin-3-yl}-N-[(3R,6S)-6-(trifluoromethyl)piperidin-3-yl]pyrimidine-5-carboxamide or rac-2-{5-[(3-ethoxypyridin-2-yl)oxy]pyridin-3-yl}-N-[(3R,6R)-6-(trifluoromethyl)piperidin-3-yl]pyrimidine-5-carboxamide] |  |
| < 7 | < 2.7 |  |  | 7.7 | CCOc1cc(F)cnc1Oc1cncc(-c2ncc(C(=O)N[C@@H]3CNCC[C@@H]3F)cn2)c1 [Example 1, 2-{5-[(3-Ethoxy-5-fluoropyridin-2-yl)oxy]pyridin-3-yl}-N-[(3R,4S)-4-fluoropiperidin-3-yl]pyrimidine-5-carboxamide, bis(trifluoroacetate) Salt] |  |
| 13 | < 3.8 |  | 3.2 | 2.3 | CCOc1cccnc1Oc1cncc(-c2ncc(C(=O)NC3(CO)CCOC3)cn2)c1 (single isomer, unassigned) [WO2018033832 Ex. 6a] |  |
| 30 | 9.3 | 13 |  |  | CCOc1cccnc1Oc1cncc(-c2ncc(C(=O)NC3(C)CCS(=O)(=O)C3)cn2)c1 (stereo not shown) [WO2018033832 Ex. 3.1] |  |
| 11 | < 3.8 |  | 3.9 | 2.4 | CCOc1cccnc1Oc1cncc(-c2ncc(C(=O)N[C@H]3CCOC3)cn2)c1 [WO2018033832 Ex. 1] |  |
|  |  |  |  |  | CCOc1cccnc1Oc1cncc(-c2ncc(C(=O)N[C@H]3CCOC3)cn2)c1 [WO2018033832 Ex. 1, Form 1] | Solubility ([5]; SGN pH 1.2 (simulated gastric fluid)): 78 µg/mL (≈ 191 µM); solubility at 25 h ([5]; fasted state simulated intestinal fluid (FaSSIF), pH 6.8, fassif, FaSSIF pH 6.8): 69 µg/mL (≈ 169 µM); solubility at 25 h ([5]; phosphate buffered saline, pH 6.8, aqueous buffer, PBS, pH 6.8): 43 µg/mL (≈ 106 µM) |
|  |  |  |  |  | CCOc1cccnc1Oc1cncc(-c2ncc(C(=O)N[C@H]3CCOC3)cn2)c1 [WO2018033832 Ex. 1, Form 2] | Solubility ([5]; FaSSIF pH 6.8): 93 µg/mL (≈ 228 µM); Solubility ([5]; PBS, pH 6.8): 60 µg/mL (≈ 147 µM) |

Reference: US11471458B2, “Diacylglycerol acyl transferase 2 inhibitor” (Pfizer Inc., priority 2019, dated 2022)
